Source: US10967076B2, “Use of non-labeled sugars and detection by MRI for assessing tissue perfusion and metabolism” (The Johns Hopkins University, priority 2010, dated 2021)

Tests used:
[1] = tested on: MDA-MB-231 and MCF-7 xenografts; experiment: 18F-FDG-PET of the xenograft mouse; type: in vivo; settings: 1 hr post-injection, FIG. 5B
Excerpt: We applied glucose infusion in vivo on xenografts in mice for two human breast cancer lines: less aggressive (MCF-7) and highly aggressive and metastatic (MDA-MB-231). Our MRI protocol used normal D-glucose (non-radioactive, non-hyperpolarized and not labeled with magnetic isotopes) and monitored this using glucose-based chemical exchange saturation transfer (glucoCEST) MRI. Images were compared with perfusion as assessed by dynamic contrast-enhanced (DCE) MRI and glucose uptake as assessed by FDG-PET. In-vivo animal experiments employed female SCID mice four to six weeks old. Tumor cells were implanted orthotopically in the mammary fat pad in an aseptic surgical procedure according to Institutional Animal Care and Use Committee (IACUC) guidelines. For cell implantation in the mammary fat pad, mice were anesthetized with ketamine and acepromazine (6.25 mg/kg and 62.5 mg/kg) injected in a volume of 0.05 ml using a sterile insulin syringe (28.5 G needle), and a cell suspension containing 1×10^6 MDA-MB-231 cells in 0.05 ml of Hanks balanced salt solution was injected into the upper right thoracic mammary fat pad using a sterile insulin syringe (28.5 G needle). […] Following tumor cell implants, animals were monitored until recovered from anesthesia and then checked after 6 and 12 h, then daily.

[2] = tested on: MDA-MB-231 and MCF-7 xenografts; experiment: steady-state glucoCEST MRI before and after D-glucose infusion in a xenograft mouse at 9.4 T; type: in vivo, mice; settings: offset 1.2 ppm, blood glucose about 20 mM, preliminary data, FIG. 4F
Excerpt: Tumors are generally characterized by rapid glucose metabolism, increased tissue blood volume, and increased permeability to extravascular extracellular space (EES). We applied glucose infusion in vivo on xenografts in mice for two human breast cancer lines: less aggressive (MCF-7) and highly aggressive and metastatic (MDA-MB-231). Our MRI protocol used normal D-glucose (non-radioactive, non-hyperpolarized and not labeled with magnetic isotopes) and monitored this using glucose-based chemical exchange saturation transfer (glucoCEST) MRI. Images were compared with perfusion as assessed by dynamic contrast-enhanced (DCE) MRI and glucose uptake as assessed by FDG-PET. In-vivo animal experiments employed female SCID mice four to six weeks old. Tumor cells were implanted orthotopically in the mammary fat pad in an aseptic surgical procedure according to Institutional Animal Care and Use Committee (IACUC) guidelines. […] Following tumor cell implants, animals were monitored until recovered from anesthesia and then checked after 6 and 12 h, then daily. […]

[3] = tested on: MDA-MB-231 and MCF7 xenografts; experiment: dynamic glucoCEST MRI during D-glucose infusion in a xenograft mouse at 11.7 T; type: in vivo; settings: FIGS. 6A-6C
Excerpt: FIGS. 6A-6C show results for a D-glucose infusion experiment with dynamic monitoring of the MR exchange transfer signals for a mouse with two tumor xenografts (MDA-MB-231 and MCF7) at 11.7 T for which a D-glucose infusion protocol similar to the example in FIG. 4 was used.

[4] = tested on: MDA-MB-231 and MCF7 xenografts; experiment: DCE-MRI with GdDTPA (post-Gd-DTPA difference images) of the xenograft mouse; type: in vivo
Excerpt: We applied glucose infusion in vivo on xenografts in mice for two human breast cancer lines: less aggressive (MCF-7) and highly aggressive and metastatic (MDA-MB-231). Our MRI protocol used normal D-glucose (non-radioactive, non-hyperpolarized and not labeled with magnetic isotopes) and monitored this using glucose-based chemical exchange saturation transfer (glucoCEST) MRI. Images were compared with perfusion as assessed by dynamic contrast-enhanced (DCE) MRI and glucose uptake as assessed by FDG-PET. In-vivo animal experiments employed female SCID mice four to six weeks old. Tumor cells were implanted orthotopically in the mammary fat pad in an aseptic surgical procedure according to Institutional Animal Care and Use Committee (IACUC) guidelines. For cell implantation in the mammary fat pad, mice were anesthetized with ketamine and acepromazine (6.25 mg/kg and 62.5 mg/kg) injected in a volume of 0.05 ml using a sterile insulin syringe (28.5 G needle), and a cell suspension containing 1×10^6 MDA-MB-231 cells in 0.05 ml of Hanks balanced salt solution was injected into the upper right thoracic mammary fat pad using a sterile insulin syringe (28.5 G needle). […] Following tumor cell implants, animals were monitored until recovered from anesthesia and then checked after 6 and 12 h, then daily. […]

Compound: Fluorodeoxyglucose [^18F-FDG]
- glucose uptake on PET [1]: the MDA-MB-231 tumor exhibits a higher glucose uptake than the MCF-7 tumor

Compound: O=C[C@H](O)[C@@H](O)[C@H](O)[C@H](O)CO [D-glucose]
- glucose uptake (MTR asymmetry histograms before and after infusion, ROIs) [2]: a trend towards higher glucose uptake in the malignant MDA-MB-231 tumor (ROI 1) as well as in the necrotic area in the MCF7 tumor (ROI 2)
- uptake (MTRasym signal changes as a function of time during infusion, rim and tumor center) [3]: uptake is higher in the more malignant MDA-MB-231 tumor

Compound: O=C([O-])CN(CCN(CC(=O)[O-])CC(=O)O)CCN(CC(=O)[O-])CC(=O)O.[Gd+3] [Gd-DTPA, Gadolinium-DiethyleneTriaminePentaacetic Acid]
- visualization of the tumor mass ([4]; 0.2 mmole/kg GdDTPA, FIG. 5C): good visualization of the tumor mass relative to normal tissue
- highlighting of the necrotic area in the MCF7 tumor ([4]; Gd perfusion scan): did not highlight the necrotic area in the MCF7 tumor
